In ChEMBL document CHEMBL5506003, “Design and biological evaluation of dual tubulin/HDAC inhibitors based on millepachine for treatment of prostate cancer” (Eur J Med Chem, 2024):
Activity calls are given as the source filed them. No cut-off for these calls is given here.

Legend:
[1] = tested on: PC-3; assay: Induction of mitochondrial membrane potential loss in human PC-3 cells assessed as increase in monomer JC-1 level by measuring green fluorescence intensity at 0.08 uM incubated for 24 hrs by JC-1 staining based flow cytometry analysis (reference value: 6.44%); assay type: functional
[2] = molecular target: T1, Tubulin (Homo sapiens) (UniProt P68371+Q9H4B7+P0DPH7+P68366+Q13509+Q71U36+P04350+Q3ZCM7+P07437+P68363+Q9BQE3+Q6PEY2+Q13885+Q9BVA1+Q9BUF5); assay: (§1) Inhibition of tubulin polymerization (unknown origin) measured after 60 mins by fluorescence based assay; assay type: protein-complex assay
[3] = molecular target: Tubulin; assay: as §1; assay type: protein-complex assay, Homo sapiens
[4] = tested on: PC-3; assay: Induction of apoptosis in human PC-3 cells assessed as downregulation of Bcl-2 expression at 0.08 to 0.32 uM by Western blotting analysis; assay type: functional, cell-based; settings: dose 0.08-0.32 µM
[5] = tested on: PC-3; assay: Induction of cell cycle arrest in human PC-3 cells assessed as G2/M phase cells at 0.08 uM incubated for 24 hrs by PI staining based flow cytometry analysis (reference value: 12.83%); assay type: functional
[6] = tested on: PC-3; assay: Induction of apoptosis in human PC-3 cells assessed as late apoptotic cells at 0.32 uM incubated for 24 hrs by Annexin V-FITC and PI staining based flow cytometry (reference value: 1.02%); assay type: functional
[7] = tested on: HUVEC; assay: Anti-angiogenesis activity against HUVECs assessed as reduction in capillary like tubules at 0.1 to 1.6 uM incubated for 6 hrs by matrigel based microscopic analysis; assay type: functional, cell-based; settings: Homo sapiens, dose 0.1-1.6 µM
[8] = molecular target: T1, Tubulin (Homo sapiens); assay: Binding affinity to tubulin colchicine binding site in human PC-3 cells assessed as reduction in beta-tubulin adduct formation at 5 uM preincubated for 2 hrs followed by EBI addition and measured after 1.5 hrs by Western blotting assay; assay type: cell-based; parameters: scale not given: the % may be the effect or the level left; settings: time 3.5 hrs
[9] = molecular target: T1, Tubulin (Homo sapiens); assay: Inhibition of microtubule polymerization in human PC-3 cells assessed as fragmented microtubule filaments at 0.32 uM incubated for 6 hrs by immunofluorescent staining based confocal microscopy assay; assay type: cell-based
[10] = tested on: PC-3; assay: Induction of cell cycle arrest in human PC-3 cells assessed as S phase cells at 0.08 uM incubated for 24 hrs by PI staining based flow cytometry analysis (reference value: 31.7%); assay type: functional
[11] = Toxicity in BALB/c nude mouse xenografted with human PC-3 cells assessed as lung damage at 10 to 20 mg/kg, iv administered every 2 days and measured after 3 weeks; assay type: organism-based; settings: in vivo, 504 h, dose 10-20 mg/kg
[12] = tested on: MDA-MB-231; assay: Cytotoxicity against human MDA-MB-231 cells incubated for 72 hrs by MTT assay; assay type: functional, cell-based; settings: MDA-MB-231, 72 h
[13] = molecular target: T1, Tubulin (Homo sapiens); assay: Inhibition of microtubule polymerization in human PC-3 cells assessed as disorganized microtubule filaments at 0.32 uM incubated for 6 hrs by immunofluorescent staining based confocal microscopy assay; assay type: cell-based
[14] = Toxicity in BALB/c nude mouse xenografted with human PC-3 cells assessed as spleen damage at 10 to 20 mg/kg, iv administered every 2 days and measured after 3 weeks; assay type: organism-based; settings: in vivo, 504 h, dose 10-20 mg/kg
[15] = tested on: PC-3; assay: Induction of ROS generation in human PC-3 cells at 0.32 uM incubated for 24 hrs by DCFH-DA staining based flow cytometry analysis (reference value: 2.63%); assay type: functional
[16] = Toxicity in BALB/c nude mouse xenografted with human PC-3 cells assessed as liver damage at 10 to 20 mg/kg, iv administered every 2 days and measured after 3 weeks; assay type: organism-based; settings: in vivo, 504 h, dose 10-20 mg/kg
[17] = tested on: PC-3; assay: Antitumor activity against human PC-3 cells xenografted in iv dosed BALB/c nude mouse assessed as tumor growth inhibition administered every 2 days and measured after 3 weeks; assay type: functional, organism-based; settings: dose 10-20 mg/kg
[18] = Toxicity in BALB/c nude mouse xenografted with human PC-3 cells assessed as kidney damage at 10 to 20 mg/kg, iv administered every 2 days and measured after 3 weeks; assay type: organism-based; settings: in vivo, 504 h, dose 10-20 mg/kg
[19] = tested on: PC-3; assay: Induction of mitochondrial membrane potential loss in human PC-3 cells assessed as increase in monomer JC-1 level by measuring green fluorescence intensity at 0.16 uM incubated for 24 hrs by JC-1 staining based flow cytometry analysis (reference value: 6.44%); assay type: functional
[20] = tested on: PC-3; assay: Induction of mitochondrial membrane potential loss in human PC-3 cells assessed as decrease in JC-1 aggregate level by measuring red fluorescence intensity at 0.08 uM incubated for 24 hrs by JC-1 staining based flow cytometry analysis (reference value: 93.5%); assay type: functional; parameters: scale not given: the % may be the effect or the level left
[21] = tested on: PC-3; assay: Induction of ROS generation in human PC-3 cells at 0.08 uM incubated for 24 hrs by DCFH-DA staining based flow cytometry analysis (reference value: 2.63%); assay type: functional
[22] = tested on: PC-3; assay: Inhibition of colony formation in human PC-3 cells at 40 nM incubated for 24 hrs followed by replacement with fresh media and measured after 2 weeks by crystal violet staining based assay; assay type: functional
[23] = tested on: PC-3; assay: Cytotoxicity against human PC-3 cells incubated for 72 hrs by MTT assay; settings: PC-3, 72 h
[24] = tested on: PC-3; assay: Induction of apoptosis in human PC-3 cells assessed as necrotic cells at 0.32 uM incubated for 24 hrs by Annexin V-FITC and PI staining based flow cytometry (reference value: 0.13%); assay type: functional
[25] = tested on: PC-3; assay: Induction of cell cycle arrest in human PC-3 cells assessed as decrease in phosphorylated Cdc25c at Ser216 by Western blotting analysis; assay type: functional, cell-based; settings: dose 0.08-0.32 µM
[26] = Toxicity in BALB/c nude mouse xenografted with human PC-3 cells assessed as heart damage at 10 to 20 mg/kg, iv administered every 2 days and measured after 3 weeks; assay type: organism-based; settings: in vivo, 504 h, dose 10-20 mg/kg
[27] = molecular target: Histone deacetylase 1 (Homo sapiens, UniProt Q13547); assay: Inhibition of HDAC1 in human HeLa nuclear extracts incubated for 30 mins by fluorescence based assay; assay type: cell-free
[28] = tested on: PC-3; assay: Induction of apoptosis in human PC-3 cells assessed as viable cells at 0.16 uM incubated for 24 hrs by Annexin V-FITC and PI staining based flow cytometry (reference value: 97.5%); assay type: functional; settings: read-out: Activity
[29] = tested on: PC-3; assay: Induction of mitochondrial membrane potential loss in human PC-3 cells incubated for 24 hrs by JC-1 staining based flow cytometry analysis; assay type: functional, cell-based; settings: dose 0.08-0.32 µM
[30] = tested on: PC-3; assay: Induction of cell cycle arrest in human PC-3 cells assessed as G2/M phase cells at 0.32 uM incubated for 24 hrs by PI staining based flow cytometry analysis (reference value: 12.83%); assay type: functional
[31] = tested on: PC-3; assay: Induction of apoptosis in human PC-3 cells assessed as viable cells at 0.32 uM incubated for 24 hrs by Annexin V-FITC and PI staining based flow cytometry (reference value: 97.5%); assay type: functional; settings: read-out: Activity
[32] = tested on: PC-3; assay: Induction of ROS generation in human PC-3 cells at 0.16 uM incubated for 24 hrs by DCFH-DA staining based flow cytometry analysis (reference value: 2.63%); assay type: functional
[33] = tested on: PC-3; assay: Inhibition of colony formation in human PC-3 cells at 5 nM incubated for 24 hrs followed by replacement with fresh media and measured after 2 weeks by crystal violet staining based assay; assay type: functional, cell-based
[34] = tested on: PC-3; assay: Induction of apoptosis in human PC-3 cells assessed as late apoptotic cells at 0.08 uM incubated for 24 hrs by Annexin V-FITC and PI staining based flow cytometry (reference value: 1.02%); assay type: functional
[35] = Volume of distribution at steady state in Sprague-Dawley rat at 2 mg/kg, iv measured upto 24 hrs by HPLC-MS analysis; assay type: ADME, organism-based; settings: in vivo, read-out: Vdss

Sequence of Histone deacetylase 1 (Q13547 whole entry): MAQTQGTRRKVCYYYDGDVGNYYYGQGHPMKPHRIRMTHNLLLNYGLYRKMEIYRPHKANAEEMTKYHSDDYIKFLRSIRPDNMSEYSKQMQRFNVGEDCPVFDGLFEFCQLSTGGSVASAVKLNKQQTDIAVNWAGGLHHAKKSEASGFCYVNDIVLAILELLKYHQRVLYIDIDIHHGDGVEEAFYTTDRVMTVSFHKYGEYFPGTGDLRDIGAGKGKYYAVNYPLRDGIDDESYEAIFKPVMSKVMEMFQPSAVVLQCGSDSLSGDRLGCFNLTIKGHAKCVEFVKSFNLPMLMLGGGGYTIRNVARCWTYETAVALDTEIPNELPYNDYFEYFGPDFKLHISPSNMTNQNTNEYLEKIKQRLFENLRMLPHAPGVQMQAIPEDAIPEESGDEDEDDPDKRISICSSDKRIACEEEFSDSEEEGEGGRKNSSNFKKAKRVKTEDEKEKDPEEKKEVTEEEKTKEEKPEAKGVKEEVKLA

For COc1ccc(/C=C/C(=O)c2ccc(OC)c3c2OC(C)(C)C=C3)cc1NCC(=O)NO, which Activity [1] is on record?
The Activity was 10.6%.

And the inhibition [2]?
Its inhibition is “Dose-Dependent Effect”.

What about the IC50 [3] of the same compound?
The IC50 was 4.82 µM.

What about the Activity [4] of the same compound?
The Activity was “Active”.

What about the Activity [5] of the same compound?
Its Activity is 25.45%.

And the Activity [6]?
The Activity was 8.39%.

What about the Activity [7] of the same compound?
The Activity was “Active”.

And the Activity [8]?
The Activity was 100%.

And the inhibition [9]?
The inhibition was “Active”.

What about the Activity [10] of the same compound?
The Activity was 39.9%.

And the Activity [11]?
The Activity was “Non-Toxic”.

What about the IC50 [12] of the same compound?
Its IC50 is 340 nM.

And the inhibition [13]?
Its inhibition is “Active”.

What about the Activity [14] of the same compound?
The Activity was “Non-Toxic”.

What about the Activity [15] of the same compound?
Its Activity is 83.1%.

What about the Activity [16] of the same compound?
Its Activity is “Non-Toxic”.

What about the Activity [17] of the same compound?
The Activity was “Dose-Dependent Effect”.

And the Activity [18]?
Its Activity is “Non-Toxic”.

What about the Activity [19] of the same compound?
The Activity was 20.7%.

And the Activity [20]?
Its Activity is 88.4%.

What about the Activity [21] of the same compound?
Its Activity is 45.7%.

What about the inhibition at 0.04 µM [22] of the same compound?
Its inhibition at 0.04 µM is 100%.

And the IC50 [23]?
The IC50 was 16 nM.

What about the Activity [24] of the same compound?
The Activity was 0.19%.

And the Activity [25]?
The Activity was “Active”.

What about the Activity [26] of the same compound?
Its Activity is “Non-Toxic”.

And the IC50 [27]?
The IC50 was 730 nM.

What about the viability at 0.16 µM [28] of the same compound?
Its viability at 0.16 µM is 78.8%.

What about the Activity [29] of the same compound?
Its Activity is “Dose-Dependent Effect”.

And the Activity [30]?
The Activity was 82.04%.

And the viability at 0.32 µM [31]?
The viability at 0.32 µM was 27.6%.

What about the Activity [32] of the same compound?
The Activity was 75.4%.

What about the inhibition [33] of the same compound?
The inhibition was “Active”.

What about the Activity [34] of the same compound?
The Activity was 2.59%.

What about the Vd [35] of the same compound?
The Vd was 0.42 L/kg.
